These are literature values, as cited in article PMC9088800, “Expanded LUXendin Color Palette for GLP1R Detection and Visualization In Vitro and In Vivo” (JACS Au, 2022).

For the data set the following is noted: phase III trials, combined with lifestyle interventions. An excerpt:
The glucagon-like peptide-1 receptor (GLP1R) is a class B G protein-coupled receptor involved in the regulation of glucose homeostasis, food intake, and inflammation.[1],[2] As such, GLP1R agonist (GLP1RA) therapy has become a mainstay of type-2 diabetes treatment during the past decade, with a number of drugs on the market based upon stabilized analogues of glucagon-like peptide-1.[3] Most recently, phase III trials of the third-generation semaglutide have shown a ∼15% reduction in body weight when combined with lifestyle interventions,[4] leading to the approval of GLP1RAs as the first nonsu ...

Consider semaglutide, for which the “Reduction in body weight” value is on record as around 15%.
